Test results from PMC12024912, “Druggability Studies of Benzene Sulfonamide Substituted Diarylamide (E3) as a Novel Diuretic” (Biomedicines, 2025).
Where two headings read alike, the source gives them in different places.

Columns and labels:
[1] = system: SD rats; test: Long-term (7 d) diuretic activity in rats; format: in vivo, rat; details: for ALT / AST / Body weight / Brain index / Heart index / Kidney index / Liver index / Serum K / Serum Na / Serum creatinine / Serum urea / Spleen index / Testis index: n=6
Description: In a single-dose administration experiment, male wild-type (WT) mice, UT-B^−/− mice, UT-A1^−/− mice, or SD rats were adapted in metabolic cages for 3 d. Food and water were provided ad libitum throughout the experiment. Prior to administration, the bladder of each animal was emptied through gentle abdominal massage, and urine was collected from the metabolic cages every 2 h. Compound E3, suspended in 0.5% CMC-Na at an appropriate concentration, was administered intragastric gavage to the mice or rats (0.16, 0.8, 4, or 20 mg/kg). Vehicle control comprised 0.5% (w/v) CMC-Na. Urinary parameters were determined through the following: volume: Gravimetric analysis (1 g/mL density assumption); osmolality: freezing-point osmometry (Micro-osmometer, Fisker Associates, Norwood, MA, USA); and urea: diacetyl oxime colorimetry (QuantiChrom® kit, Elabscience, Wuhan, China). In long-term (7 d) diuretic activity experiments, male WT mice, UT-B^−/− mice, UT-A1^−/− mice, and SD rats were acclimatized in metabolic cages (Ugo Basile, Comerio, VA, Italy) for 3 d. Food and water were provided ad libitum throughout the experiment. E3 was suspended in 0.5% CMC-Na and administered at a dose of 4 or 20 mg/kg by intragastric gavage. Urine was collected by metabolic cages every 24 h. Body weight was measured daily. At 4 h after the final administration, a blood sample was obtained by heart puncture. Inner medulla and outer medulla tissue homogenates were prepared, and the supernatant after centrifugation was analyzed for solute concentration and osmolality. Urinary osmolality and urea concentration were measured as above. Serum Na^+, K^+, and Cl^− were measured in a clinical chemistry laboratory, while serum creatinine, ALT, and AST were measured through specific reagent kits (NJJC Bio, Nanjing, China).
Multiple tissues and organs were fixed with 4% paraformaldehyde and embedded in paraffin. Five μm paraffin sections were cut and stained with hematoxylin and eosin (H&E).
Inner medulla tissues were homogenized in ice-cold RIPA buffer supplemented with protease/phosphatase inhibitors (Roche, Basel, Switzerland). Following centrifugation (12,000× g, 15 min, 4 °C), supernatants were subjected to BCA quantification (Thermo Scientific, Waltham, MA, USA). Protein lysates underwent SDS-PAGE separation and electrotransfer to PVDF membranes (Amersham Biosciences, Boston, MA, USA). After 2 h blocking with 5% skimmed milk, membranes were sequentially processed with: (1) TBST washes (20 mM Tris-HCl, 137 mM NaCl, 0.1% Tween-20, pH 7.4); (2) primary antibodies (UT-A1/A2/A3, UT-B, AQP2/3, β-actin; 4 °C, 12 h); and (3) HRP-conjugated secondary antibodies (anti-mouse/rabbit IgG; RT, 2 h). Chemiluminescent detection employed the ECL reagent (Meilunbio, Dalian, China) on a Syngene GeneGnome XRQ system, with band quantification via ImageJ (v1.53k).

[2] = system: rat hyponatremia model caused by SIADH; test: Rat hyponatremia model caused by SIADH (dDAVP); format: in vivo
Description: The protocol for dDAVP-induced hyponatremia was adapted from a previous study, with tolvaptan chosen as the positive control. Preliminary experiments determined the dose of dDAVP (0.25 ng/h). Under isoflurane anesthesia, a 0.5 μg/mL dDAVP solution was injected subcutaneously using an osmotic minipump (ALZET 2002, Cupertino, CA, USA; 200 μL, low rate of 0.5 μL/h for […]). Rats were housed individually in metabolic cages to collect urine. Before using the pump, they were given 62.5 mL/d 1.0 kcal/mL of liquid food. After pump implantation, the rats received 40 mL of 2.1 kcal/mL of liquid feed daily. The rats were divided into five groups: control group (sham operation), model group (0.5% poloxamer, solvent), 4 mg/kg tolvaptan group, 4 mg/kg E3 group, and 20 mg/kg E3 group. E3 was administered orally every 8 h, while tolvaptan was given intragastrically once daily. At the end of the experiment, the rats were sacrificed.

[3] = Intestinal microbiota stability, rat; format: in vitro ADME; details: Sprague-Dawley
Description: (§1) Plasma from mice, rats, rabbits, and humans was obtained from blood after centrifugation at 3000 r/min for 10 min. Simulated gastric fluid (SGF, pH = 1, containing pepsin) and simulated intestinal fluid (SIF, pH = 6.8, containing trypsin) were configured previously in the experiments. SD rats and mice were collected, and after removing the mucus layer from the small intestine and colon, 20 times the volume of liquid bacterial culture medium was added. An intestinal microbiota suspension was obtained after anaerobic cultivation on a shaking table at 37 °C for 12 h. In the aforementioned systems, E3 was added at a final concentration of 1 μmol/L at 37 °C for different incubation times (0, 10, 20, 30, 60, 120, and 240 min). In liver metabolic stability assays, E3 was incubated with liver microsomes or liver homogenate from mice or rats for 60 min at 37 °C. The stop solution, 5 ng/mL tolbutamide (internal standard, IS) in acetonitrile, was added to stop the metabolic process. Post-centrifugation (18,000× g, 10 min, 4 °C), supernatants were subjected to liquid chromatography–tandem mass spectrometry (LC–MS/MS). Analyte-to-IS peak area ratios quantified residual percentages via Equation (2):Remaining% = (E3peak area/ISpeak area at different time)/(E3peak area/ISpeak area at 0 min) × 100%.(2)

[4] = Intestinal microbiota stability (colon and small intestine), rats and mice together; format: in vitro ADME, SD rats and mice; details: after 4 h
Description: as §1

[5] = SIADH rats, E3 4 or 20 mg/kg every 8 h, tolvaptan 4 mg/kg once daily, vs model rats

In the case of `CC(=O)c1ccc(C(=O)Nc2cccc(NS(=O)(=O)c3ccccc3)c2)o1` [Compound E3, 5-acetyl-N-(3-(phenylsulfonamido)phenyl)furan-2-carboxamide], the urine output ([1]; 4 mg/kg and 20 mg/kg intragastric, 7 d) was “continuously increased”, the ALT ([1]; 4 mg/kg, 7 d) was 42.2±5.5 U/L and the AST ([1]; 4 mg/kg, 7 d) was 113.0±10.6 U/L. For the same molecule, the Body weight ([1]; 4 mg/kg, 7 d) was 242.4 ± 2.3 g, the Brain index ([1]; 4 mg/kg, 7 d) was 0.58±0.01% and the Heart index ([1]; 4 mg/kg, 7 d) was 0.38±0.01%. The Kidney index ([1]; 4 mg/kg, 7 d) was 0.78±0.03%, the Liver index ([1]; 4 mg/kg, 7 d) was 3.98±0.08% and the “Serum K” value ([1]; 4 mg/kg, 7 d) was 5.16 ± 0.10 mM. For the same molecule, the “Serum Na” value ([1]; 4 mg/kg, 7 d) was 140.7 ± 1.2 mM, the Serum creatinine ([1]; 4 mg/kg, 7 d) was 33.6 ± 1.7 µM and the Serum urea ([1]; 4 mg/kg, 7 d) was 7.15 ± 0.16 mM. For the same molecule, the Spleen index ([1]; 4 mg/kg, 7 d) was 0.30±0.02%, the Testis index ([1]; 4 mg/kg, 7 d) was 0.88±0.06% and the ALT ([1]; 20 mg/kg, 7 d) was 40.2±1.9 U/L. The AST ([1]; 20 mg/kg, 7 d) was 112.9±4.5 U/L, the Body weight ([1]; 20 mg/kg, 7 d) was 240.8 ± 4.1 g and the Brain index ([1]; 20 mg/kg, 7 d) was 0.64±0.01%. It also gave a Heart index ([1]; 20 mg/kg, 7 d) of 0.40±0.01%, a Kidney index ([1]; 20 mg/kg, 7 d) of 0.73±0.03% and a Liver index ([1]; 20 mg/kg, 7 d) of 3.99±0.06%. For the same molecule, the “Serum K” value ([1]; 20 mg/kg, 7 d) was 4.98 ± 0.12 mM, the “Serum Na” value ([1]; 20 mg/kg, 7 d) was 141.3 ± 1.0 mM and the Serum creatinine ([1]; 20 mg/kg, 7 d) was 34.1 ± 1.6 µM. It also gave a Serum urea ([1]; 20 mg/kg, 7 d) of 7.18 ± 0.19 mM, a Spleen index ([1]; 20 mg/kg, 7 d) of 0.29±0.01% and a Testis index ([1]; 20 mg/kg, 7 d) of 0.94±0.02%. For the same molecule, the “excretion of non-urea solutes” value ([1]; 4 and 20 mg/kg, 7 d) was “did not change”, the urine osmolality ([1]; 4 and 20 mg/kg, 7 d) was “significantly decreased” and the “H&E staining of cortex and medulla of rat kidneys” value ([1]; 7 d, except dilatation of the collecting duct due to polyuria) was “did not induce morphological abnormalities”. For the same molecule, the “non-urea solutes in inner medullary tissue” value ([1]; 7 d, vs control) was “did not change”, the “osmolality in inner medullary tissue” value ([1]; 7 d, vs control) was “significantly decreased” and the “outer medullary osmolality, urea concentration, and non-urea solute concentration” value ([1]; 7 d, vs control) was “no differences”. For the same molecule, the “urea concentration in inner medullary tissue” value ([1]; 7 d, vs control) was “significantly decreased”, the “body weight, organ indexes, blood biochemical parameters (incl. serum Na+, K+, Cl−)” value ([1]; after 7 d of treatment, vs control) was “no significant difference” and the “hyponatremia in SIADH rats” value ([2]; E3 4 or 20 mg/kg orally every 8 h, tolvaptan 4 mg/kg once daily, vs model) was “significantly alleviated”. For the same molecule, the serum osmolality [2, 5] was “significantly increased”, the serum sodium concentration [2, 5] was “significantly increased” and the blood urea levels ([2]; SIADH rats, between experimental groups before and after treatment) was “no significant difference”. For the same molecule, the “H&E staining of kidney and liver” value ([2]; SIADH rats, except dilatation of collecting ducts) was “normal tissue structures”, the remaining at 1 μmol/L ([3]; colon microbiota suspension, n=3, read-out: Rat colon microbiota (remaining %)) was 82.3% and the remaining at 1 μmol/L ([3]; small intestine microbiota suspension, n=3, read-out: Rat small intestine microbiota (remaining %)) was 87.4%. For the same molecule, the “E3 remaining with intestinal microbiota (colon and small intestine)” value [4] was “over 82%”.
